Experimental data: patent US20110060056A1, “Inhibition of the Survival of Gastric Cancer by Cyclohexenone Compounds from Antrodia Camphorata” (GOLDEN BIOTECHNOLOGY CORPORATION, priority 2009, published 2011)

Tested on: gastric cancer cell line TSGH-9201
Assay: In vitro survival assay (MTT) for anti-gastric cancer effects
Type: cell-based
Settings: Homo sapiens, TSGH-9201 cells, 48 hours treatment, read-out: IC50 (half inhibition concentration), survival of gastric cancer cells
Description: Inhibiting effects of gastric cancer cells by cyclohexenone compounds of Antrodia camphorata from example 1 were assessed according to the anticancer-drug screening model of National Cancer Institute (NCI). The compound 4-hydroxy-2,3-dimethoxy-6-methyl-5-(3,7,11-trimethyl-dodeca-2,6,10-trienyl)-cyclohex-2-enone from example 1 was added into the culture media of gastric cancer cell line TSGH-9201 to determine the survival rates. Survival of cell was analyzed using MTT assay. TSGH-9201 cell line was a human gastric carcinoma cell line.
MTT assay is commonly used to analyze cell proliferation, survival rate of viable cells and cytotoxicity. MTT (3[4,5-dimethylthiazol-2-yl]-2,5-diphenyltetrazolium bromide) is a yellow dye which can be converted to water-insoluble purple formazan on the reductive cleavage of its tetrazolium ring by the succinate tetrazolium reductase in mitochondria of cells. The amount of formazan produced is used to detect the number of viable cells and calculate the survival rates.
The TSGH-9201 cells were cultivated in DMEM medium supplemented with 10% fetal bovine serum, 100 U/ml of Penicillin and 100 μg/ml of Streptomycin at 37° C., 5% CO2 for 24 hours. Proliferated cells were washed once with PBS, treated with 1× trypsin-EDTA, and centrifuged at 1200 rpm for 5 min. […] The absorbances were measured at 570 nm with an ELISA Reader to determine the survival rates.

COC1=C(OC)C(O)C(C/C=C(\C)CC/C=C(\C)CCC=C(C)C)C(C)C1=O (stereo not shown) [formula 2, 4-hydroxy-2,3-dimethoxy-6-methyl-5-(3,7,11-trimethyl-dodeca-2,6,10-trienyl)-cyclohex-2-enone]
IC50: 1.32 µg/mL
